For data set [1], the target named is T1, FAAH (Sus scrofa, UniProt Q9TUI8).
T1 construct: 165 µl of diluted pig brain homogenate; from tissue; host or cells: pig brain homogenate
T1 sequence (Q9TUI8 1-579): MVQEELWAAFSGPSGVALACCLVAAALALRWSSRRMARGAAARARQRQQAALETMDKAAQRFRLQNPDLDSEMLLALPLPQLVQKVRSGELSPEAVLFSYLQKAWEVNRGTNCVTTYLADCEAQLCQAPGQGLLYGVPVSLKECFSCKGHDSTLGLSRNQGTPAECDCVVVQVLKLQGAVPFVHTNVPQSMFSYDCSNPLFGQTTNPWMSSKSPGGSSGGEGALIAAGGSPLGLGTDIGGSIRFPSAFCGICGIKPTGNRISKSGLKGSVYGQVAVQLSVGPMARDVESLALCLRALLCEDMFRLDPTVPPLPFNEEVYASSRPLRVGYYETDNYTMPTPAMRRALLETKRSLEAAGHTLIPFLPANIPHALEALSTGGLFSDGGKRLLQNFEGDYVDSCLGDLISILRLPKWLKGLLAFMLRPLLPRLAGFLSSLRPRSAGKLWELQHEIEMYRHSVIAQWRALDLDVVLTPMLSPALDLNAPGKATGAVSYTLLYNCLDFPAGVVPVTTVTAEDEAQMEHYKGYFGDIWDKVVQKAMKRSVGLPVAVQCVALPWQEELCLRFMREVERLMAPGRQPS
The experiment in a line: Fatty acid amide hydrolase (FAAH) inhibition, pig brain homogenate (assay D). Particulars: 1 µM; pig brain homogenate (assay D). It counts as biochemical. As to the method:
FAAH activity was assessed using pig brain homogenate according to the method described by Omeir et al., Arachidonoyl ethanolamide-[1,2-14C] as a substrate for anandamide amidase. Life Sci. 1995;56(23-24):1999-2005, and adapted by Fowler et al., Ibuprofen inhibits rat brain deamidation of anandamide at pharmacologically relevant concentrations. Mode of inhibition and structure-activity relationship. J Pharmacol Exp Ther. 1997 Nov;283(2):729-34. Briefly, 10 µl of test compounds at the adequate concentration or solvent were incubated at 37°C for 20 min with 165 µl of diluted pig brain homogenate in 10 mM Tris-HCl and 1 mM EDTA, pH 7.6 (corresponding to 100 µg/ml of total protein), 1% w/v fatty acid free BSA (Sigma, San Louis, MO, US) and 25 µl of a mixture 1:1 of nonradioactive AEA [^3H]-AEA (60 Ci mmol^-1) (concentration in the assay was 2 µM). Successively, 400 µl of a mixture 1:1 (v/v) of methanol:chloroform was added at each sample and, after vigorous vortexing, aqueous and organic phases were separated by centrifugation at 10000 rpm for 10 min. The radioactivity associated to the [^3H]-ethanolamine (produced by FAAH-catalysed breakdown of [^3H]-AEA) was measured upon addition of 3 ml of Ultima Gold scintillation liquid (Perkin Elmer, Waltham, MA, US) to 200 µl of the aqueous (upper) phase, using a Beckman LS6500 scintillation counter. Results were expressed as % of FAAH activity vs. pig brain homogenate treated only with solvent.

In data set [2] the target is T2, CB1 (Homo sapiens, UniProt P21554).
T2 construct: purchased Perkin Elmer RBHCB1M
T2 sequence (P21554 whole entry): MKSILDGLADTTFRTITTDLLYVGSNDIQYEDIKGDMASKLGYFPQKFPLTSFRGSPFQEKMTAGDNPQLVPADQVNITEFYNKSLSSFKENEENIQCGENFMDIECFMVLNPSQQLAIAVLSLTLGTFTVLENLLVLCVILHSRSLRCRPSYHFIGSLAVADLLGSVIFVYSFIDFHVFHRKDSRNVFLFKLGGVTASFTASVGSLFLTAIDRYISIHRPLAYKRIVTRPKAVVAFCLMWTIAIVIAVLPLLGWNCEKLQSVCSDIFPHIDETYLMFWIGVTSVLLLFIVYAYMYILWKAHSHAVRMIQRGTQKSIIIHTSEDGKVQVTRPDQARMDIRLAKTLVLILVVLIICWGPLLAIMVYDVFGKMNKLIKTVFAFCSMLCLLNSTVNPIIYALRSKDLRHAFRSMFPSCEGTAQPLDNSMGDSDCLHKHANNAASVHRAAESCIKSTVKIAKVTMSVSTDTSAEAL
The experiment in a line: Radioligand displacement assay on CB1 receptor. Particulars: for affinity towards CB1 (in words): summary of Table 3. It is filed as binding. As to the method:
(§1) For the CB1 receptor, binding experiments were performed in the presence of 0.39 nM of the radioligand [^3H]CP55,940 (168 Ci/mmol) (Perkin Elmer, Waltham, MA, US) at 30°C in siliconized glass vials together with 7.16 µg of membrane recombinantly over-expressing CB1 (No. RBHCB1M, Perkin Elmer, Waltham, MA, US), which was resuspended in 0.2 mL (final volume) binding-buffer (50 mM TRIS-HCl, 2.5 mM EGTA, 5 mM MgCl2, 0.5 mg/mL fatty acid free BSA, pH 7.4). Test compounds were present at varying concentrations and the nonspecific binding of the radioligand was determined in the presence of 10 µM CP55,940 (Tocris Cookson Ltd., Bristol, UK). After 1.5 h incubation, the suspension was rapidly filtered through 0.05% polyethylenimine pre-soaked GF/C glass fiber filters on a 96-well cell harvester and washed nine times with 0.5 mL ice-cold washing-buffer (50 mM TRIS-HCl, 2.5 mM EGTA, 5 mM MgCl2, 2% BSA, pH 7.4). Radioactivity on filters was measured with a Beckman LS 6500 scintillation counter in 3 mL Ultima Gold scintillation liquid (Perkin Elmer, Waltham, MA, US). Data collected from three independent experiments performed in triplicates were normalized between 100% and 0% specific binding for [^3H]CP55,940. […] Derived from the dissociation constant (KD) of [^3H]CP55,940 and the concentration-dependent displacement (IC50 value), inhibition constants (Ki) of competitor compounds were calculated using the Cheng-Prusoff equation [Ki = IC50/(1+ L/KD)].
(In a radioligand displacement assay an active substance lowers the binding of a labelled ligand.)

A short description of data set [3]: Critical micelle concentration (CMC) measurement, dye micellization. It is filed as physicochemical. The settings on record: fluorescein dye micellization in water, pH 6.9, room temperature. The protocol:
Dye micellization was carried out with a modified version of the method described by Eliyahu et al., Novel dextran-spermine conjugates as transfecting agents: comparing water-soluble and micellar polymers. […] Experiments were carried out on 96-well microtiter plates (excitation at 485 nm, emission at 535 nm). Since the emission of fluorescein is pH-dependent, the pH of the mixture was kept constant at 6.9. The CMC range was determined as the concentration range where the first statistically significant increase in fluorescence was detected.

Data set [4] has as its target CB2 (Homo sapiens, UniProt P34972). The experiment in a line: Radioligand displacement assay on CB2 receptor. It counts as binding. Particulars: for affinity towards CB2 (in words): summary of Table 3. Set-up: purchased Perkin Elmer RBXCB2M. The protocol: as §1
For CB2-receptor binding studies 3.8 µg of membrane recombinantly over-expressing CB2 (No. RBXCB2M, Perkin Elmer, Waltham, MA, US) were resuspended in 0.6 mL binding buffer (see above) together with 0.11 nM of the radioligand [^3H]CP55,940. The CB2-binding assay was conducted in the same manner as for CB1.

Data set [5] has as its system Arachidonoylethanolamide Transport (AEAT). The experiment in a line: Cellular uptake of [3H]-AEA in U937 cells (assay C). It counts as cell-based. Particulars: Homo sapiens, U-937; [3H]-AEA uptake, assay C (Tables 2 and 3).
The test system of data set [6] is IL-8. Nature of the data set: Induced chemokine IL-8 in HaCaT keratinocytes. It is filed as cell-based, human. The settings on record: Figure 6, 5 µM, tolerogen 10 µg/ml, 6h. The protocol: • Figure 1: AEA re-uptake inhibition of 2E,4E-dieneamides 1 and 9 into human primary monocytes and U937 cells. […] Data are mean values ± SEM of 3 independent experiments in a sigmoidal dose-response curve. • Figure 2: Concentration-dependent effects of 4 and 5 on FAAH activity. […] The maximal inhibition (32%) of 5 was measured at 1 µM. Data are mean values ± SEM of 3 independent experiments. • Figure 3: Effects of low nM concentrations of N-alkylamide 7 on FAAH activity alone and in combination with the FAAH inhibitor URB597. […] Data are mean values ± SEM of 3 independent experiments. • Figure 4: 1 and 9 inhibit LPS-induced TNF-alpha release into culture medium (measured by ELISA). Human macrophages (10^6 cells) were stimulated with LPS (500 ng/ml) and treated with UCM707 and/or compounds 1 and 9 at 5 µM for 18 h. N = 3 ± SEM. • Figure 5: UCM707 (positive control) and compounds 1 and 9 diminish NO2^- production. Human macrophages (10^6 cells) were stimulated with LPS (500 ng/ml) and treated with UCM707 and/or compounds 1 and 9 at 5 µM for 18 h. Culture supernatants were assayed for nitrite levels, using the Griess reagent as a reflection of NO production. Results are the mean ± SEM of four independent experiments performed in duplicate • Figure 6: In CB receptor expressing human HaCaT keratinocytes (10^6 cells) UCM707 (control) 1 and 9 like the endocannabinoid anandamide (each 5 µM) inhibited tolerogen (10 µg/ml) induced chemokine IL-8 (6h stimulation and incubation). N = 3 ± SEM.

The mark [7] stands for this setting: displacement of 0.39 nM [3H]CP55,940, membrane recombinantly over-expressing CB1, read-out: Receptor affinity Ki CB1.
The mark [8] stands for this setting: displacement of 0.11 nM [3H]CP55,940, membrane recombinantly over-expressing CB2, read-out: Receptor affinity Ki CB2.

Usually Ki stands for the equilibrium dissociation constant of an inhibitor or competing ligand from its target. The term EC50 denotes the concentration giving half of the maximal effect.

Read-outs that look alike come from different tables or passages of the source.

CB2, sequence (P34972 whole entry): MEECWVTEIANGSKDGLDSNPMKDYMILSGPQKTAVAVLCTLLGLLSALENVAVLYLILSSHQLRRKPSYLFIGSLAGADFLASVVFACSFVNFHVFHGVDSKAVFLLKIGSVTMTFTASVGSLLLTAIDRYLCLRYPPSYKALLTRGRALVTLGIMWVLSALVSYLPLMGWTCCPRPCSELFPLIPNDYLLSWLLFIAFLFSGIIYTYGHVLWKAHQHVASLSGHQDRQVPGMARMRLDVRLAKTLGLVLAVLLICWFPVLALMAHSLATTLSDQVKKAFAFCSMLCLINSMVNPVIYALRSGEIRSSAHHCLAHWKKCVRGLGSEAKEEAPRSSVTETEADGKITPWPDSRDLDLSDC

Consider `CCCCCCC/C=C/C=C/C(=O)NCC(C)CC` (racemic) [Compound B, (2E,4E)-N-(2-methylbutyl)dodeca-2,4-diene amide], for which, in data set [1], the “FAAH inhibition at 1 µM” value is <10 % of control. Further, in data set [2], the affinity, expressed as Ki, was 1510 ± 214 nM and the “affinity towards CB1 (in words)” value is given as “moderate affinity”. The CMC in data set [3] is on record as >5 µM. In data set [4], the Ki stood at 1100 ± 84 nM and the “affinity towards CB2 (in words)” value is on record as “moderate affinity”. For the same compound, the EC50 in data set [5] is > 10000 nM.
Consider `CCCCCCC/C=C/C=C/C(=O)NCCC(C)C` [Compound C, (2E,4E)-N-isopentyldodeca-2,4-diene amide], for which the “FAAH inhibition at 1 µM” value in data set [1] was <10 % of control. In data set [2], the Ki is > 20000 nM and the “affinity towards CB1 (in words)” value is reported as “no affinity”. For the same compound, the CMC in data set [3] is >5 µM. In data set [4], the inhibition constant Ki came out at 1455 ± 14 nM and the “affinity towards CB2 (in words)” value was “moderate affinity”. Also, in data set [5], the EC50 is > 10000 nM.
On to `CCCCCCC/C=C/C=C/C(=O)N1CCCC1` [Compound D, (2E,4E)-1-(pyrrolidin-1-yl)dodeca-2,4-dien-1-one], for which the “FAAH inhibition at 1 µM” value in data set [1] is recorded as <10 % of control. The Ki in data set [2] (setting [7]) was > 20000 nM; in data set [4] (setting [8]), < 10000 nM. Further, in data set [3], the CMC is given as >5 µM. Further, the EC50 in data set [5] was > 10000 nM.
As for `CCCCCCC/C=C/C=C/C(=O)N1CCCCC1` [Compound E, (2E,4E)-1-(piperidin-1-yl)dodeca-2,4-dien-1-one], the “FAAH inhibition at 1 µM” value in data set [1] is <10 % of control. For the same compound, the Ki in data set [2] (setting [7]) was found to be 2190 ± 180 nM; in data set [4] (setting [8]), 2640 ± 224 nM. In data set [2], the “affinity towards CB1 (in words)” value is “moderate affinity”. Also, the CMC in data set [3] is reported as >5 µM. Also, the “affinity towards CB2 (in words)” value in data set [4] is given as “moderate affinity”. Also, in data set [5], the EC50 was > 10000 nM.
As to `CCCCC/C=C\C/C=C\C/C=C\C/C=C\CCCC(=O)NCCO` [anandamide, N-arachidonoylethanolamide, reference compound], the “tolerogen induced chemokine IL-8” value in data set [6] is recorded as “inhibited”.

The values are drawn from patent EP2435019B1, “DODECA-2E,4E-DIENE AMIDES AND THEIR USE AS MEDICAMENTS AND COSMETICS” (Dr. August Wolff GmbH & Co. KG Arzneimittel, priority 2009, dated 2010).
